Laboratory results published in ChEMBL document CHEMBL1133608 (J Med Chem, 2000).

Key:
[1] = biological target: D(2) dopamine receptor (Rattus norvegicus, UniProt P61169, S193A); experiment: In vitro affinity at mutant D2 receptor (S193A) in C6 (glioma) cell membranes.; assay type: cell-based
[2] = biological target: T1, D(2) dopamine receptor (Rattus norvegicus, UniProt P61169, S194A); experiment: In vitro affinity at mutant D2 receptor (S194A) in C6 (glioma) cell membranes.; assay type: cell-based
T1 sequence (P61169 whole entry S194A): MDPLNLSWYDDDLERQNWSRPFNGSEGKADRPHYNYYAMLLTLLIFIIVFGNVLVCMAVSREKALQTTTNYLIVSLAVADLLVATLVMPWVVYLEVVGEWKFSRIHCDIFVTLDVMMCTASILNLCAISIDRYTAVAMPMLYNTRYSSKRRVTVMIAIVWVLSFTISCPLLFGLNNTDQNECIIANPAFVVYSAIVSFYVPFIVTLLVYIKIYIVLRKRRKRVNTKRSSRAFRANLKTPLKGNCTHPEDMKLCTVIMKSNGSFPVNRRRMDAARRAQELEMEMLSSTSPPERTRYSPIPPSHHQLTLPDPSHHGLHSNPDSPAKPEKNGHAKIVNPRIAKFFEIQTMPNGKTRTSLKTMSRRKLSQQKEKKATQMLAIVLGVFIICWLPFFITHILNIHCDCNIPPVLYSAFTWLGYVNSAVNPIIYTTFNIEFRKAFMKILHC

[3] = biological target: T2, D(2) dopamine receptor (Rattus norvegicus, UniProt P61169, S197A); experiment: In vitro affinity at mutant D2 receptor (S197A) in C6 (glioma) cell membranes.; assay type: cell-based
T2 sequence (P61169 whole entry S197A): as the sequence (P61169 whole entry S194A) above, with A194S, S197A counted along it

[4] = biological target: D(2) dopamine receptor (Rattus norvegicus, UniProt P61169); experiment: biochemical; assay type: cell-based, C6 glioma
D(2) dopamine receptor (Rattus norvegicus, UniProt P61169), sequence (P61169 whole entry): as the sequence (P61169 whole entry S194A) above, with A194S counted along it

[5] = biological target: T1, D(2) dopamine receptor; experiment: biochemical; assay type: cell-based, C6 glioma
[6] = biological target: T1, D(2) dopamine receptor; experiment: biochemical; assay type: cell-based, C6 glioma; remark: listed apart in the source
[7] = biological target: T2, D(2) dopamine receptor; experiment: biochemical; assay type: cell-based, C6 glioma

D(2) dopamine receptor (Rattus norvegicus, UniProt P61169, S193A), sequence (P61169 whole entry S193A): as the sequence (P61169 whole entry S194A) above, with S193A, A194S counted along it

Structure (SMILES)	Kd [1]	Kd [2]	Kd [3]	Kd [4]	Kd ([4]; c6 glioma)	Kd [5]	Kd [6]	Kd [7]
CN1C[C@H](C(N)=O)C=C2c3cccc4[nH]cc(c34)C[C@H]21	2.8 nM	2.8 nM	1 nM	0.62 nM	0.62 nM	1.8 nM		
CCN(CC)C(=O)N[C@H]1C=C2c3cccc4[nH]cc(c34)C[C@H]2N(C)C1 [LISURIDE]				0.6 nM		0.3 nM	2.3 nM	0.4 nM
CC(C)C[C@H]1C(=O)N2CCC[C@H]2[C@]2(O)O[C@](NC(=O)[C@@H]3C=C4c5cccc6[nH]c(Br)c(c56)C[C@H]4N(C)C3)(C(C)C)C(=O)N12 [BROMOCRIPTINE]				8 nM		8 nM	17 nM	4 nM
CCCN1Cc2c(C)cccc2[C@@H]2c3cc(O)c(O)cc3CC[C@H]21	1300 nM	400 nM	700 nM	300 nM	300 nM	1300 nM		
N[C@@H]1CCc2cc(O)c(O)cc2C1				210 nM		17000 nM	450 nM	120 nM
COc1cc(CCN)ccc1O				94000 nM		251000 nM	88000 nM	225000 nM
